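In this assay, cells in 96-well plates receive the compound at five concentrations for 48 hours. Endpoints are linearly interpolated between the surrounding concentrations. GI50 = concentration required for 50% inhibition of growth. TGI denotes the concentration required for complete inhibition of growth.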
Experiments:
Experiment in all cases: NCI tumour cell line growth inhibition, 48 h
[1] = test system: M14 melanoma
[2] = test system: RPMI-8226 leukemia
[3] = test system: NCI-H522 lung
[4] = test system: SNB-19 CNS
[5] = test system: HCT-15 colon
[6] = test system: NCI/ADR-RES ovarian
[7] = test system: SW-620 colon
[8] = test system: SK-MEL-5 melanoma
[9] = test system: K-562 leukemia
[10] = test system: U251 CNS
[11] = test system: MOLT-4 leukemia
[12] = test system: MALME-3M melanoma
[13] = test system: 786-0 renal
[14] = test system: CAKI-1 renal
[15] = test system: CCRF-CEM leukemia
[16] = test system: A549 NSCLC
[17] = test system: OVCAR-3 ovarian
[18] = test system: UACC-62 melanoma
[19] = test system: MCF7 breast
[20] = test system: NCI-H460 lung
[21] = test system: BT-549 breast
[22] = test system: NCI-H226 lung
[23] = test system: LOX IMVI melanoma
[24] = test system: HT29 colon
[25] = test system: OVCAR-5 ovarian
[26] = test system: A498 renal
[27] = test system: HCT-116 colon
[28] = test system: SF-539 CNS
[29] = test system: SNB-75 CNS
[30] = test system: MDA-MB-231 breast
[31] = test system: OVCAR-8 ovarian
[32] = test system: PC-3 prostate
[33] = test system: SK-MEL-28 melanoma
[34] = test system: OVCAR-4 ovarian
[35] = test system: SF-268 CNS
[36] = test system: UO-31 renal
[37] = test system: HOP-62 NSCLC
[38] = test system: SF-295 CNS
[39] = test system: ACHN renal
[40] = test system: NCI-H23 lung
[41] = test system: T-47D breast
[42] = test system: HOP-92 NSCLC
[43] = test system: DU-145 prostate
[44] = test system: EKVX NSCLC
[45] = test system: SR leukemia
[46] = test system: KM12 colon
[47] = test system: UACC-257 melanoma
[48] = test system: TK-10 renal
[49] = test system: HCC-2998 colon
[50] = test system: MDA-MB-435
[51] = test system: HL-60(TB) leukemia
[52] = test system: COLO 205 colon
[53] = test system: SK-MEL-2 melanoma
[54] = test system: IGROV1 ovarian
[55] = test system: SN12C renal
[56] = test system: SK-OV-3 ovarian
[57] = test system: HS 578T breast
[58] = test system: RXF 393 renal

CC1=CC2(C)/C=C(C)/C=C\CC(O)/C=C3/C=CC(=C4C(=O)OC2(CC1C)C4=O)OC3 (stereo not given)
GI50 [1]: 2.8 µM | TGI [1]: 9.21 µM | GI50 [2]: 0.328 µM | GI50 [3]: 2.46 µM | TGI [3]: 8.55 µM | GI50 [4]: 12 µM | TGI [4]: 25.9 µM | GI50 [5]: 1.47 µM | TGI [5]: 3.69 µM | GI50 [6]: 3.08 µM | TGI [6]: 12.2 µM | GI50 [7]: 0.512 µM | TGI [7]: 2.72 µM | GI50 [8]: 3.07 µM | TGI [8]: 11.6 µM | GI50 [9]: 1.2 µM | TGI [9]: > 100 µM | GI50 [10]: 1.64 µM | TGI [10]: 3.58 µM | GI50 [11]: 0.47 µM | TGI [11]: > 20.4 µM | GI50 [12]: 2.14 µM | TGI [12]: 5.13 µM | GI50 [13]: 2.25 µM | TGI [13]: 4.94 µM | GI50 [14]: 1.65 µM | TGI [14]: 3.63 µM | GI50 [15]: 0.673 µM | TGI [15]: 7.95 µM | GI50 [16]: 3.66 µM | TGI [16]: 16.8 µM | GI50 [17]: 1.18 µM | TGI [17]: 2.5 µM | GI50 [18]: 3.3 µM | TGI [18]: 10.8 µM | GI50 [19]: 2.11 µM | TGI [19]: 20.7 µM | GI50 [20]: 3.84 µM | TGI [20]: 15.7 µM | GI50 [21]: 2.11 µM | TGI [21]: 4.79 µM | GI50 [22]: 11.8 µM | TGI [22]: 47.9 µM | GI50 [23]: 1.63 µM | TGI [23]: 3.2 µM | GI50 [24]: 2.4 µM | TGI [24]: > 26.4 µM | GI50 [25]: 2.93 µM | TGI [25]: 10.1 µM | GI50 [26]: 2.65 µM | TGI [26]: 8.11 µM | GI50 [27]: 0.541 µM | TGI [27]: 5.02 µM | GI50 [28]: 2.49 µM | TGI [28]: 6.72 µM | GI50 [29]: 2.84 µM | TGI [29]: 17.3 µM | GI50 [30]: 1.99 µM | TGI [30]: 4.25 µM | GI50 [31]: 2.12 µM | TGI [31]: 9.01 µM | GI50 [32]: 1.45 µM | TGI [32]: 7.89 µM | GI50 [33]: 1.6 µM | TGI [33]: 3.33 µM | GI50 [34]: 1.89 µM | TGI [34]: 4.91 µM | GI50 [35]: 2.09 µM | TGI [35]: 4.75 µM | GI50 [36]: 1.46 µM | TGI [36]: 3.06 µM | GI50 [37]: 8.63 µM | TGI [37]: 26.2 µM | GI50 [38]: 8.31 µM | TGI [38]: 32 µM | GI50 [39]: 1.32 µM | TGI [39]: 2.67 µM | GI50 [40]: 2.66 µM | TGI [40]: 7.82 µM | GI50 [41]: 1.63 µM | TGI [41]: 6.52 µM | GI50 [42]: 0.524 µM | TGI [42]: 1.54 µM | GI50 [43]: 1.81 µM | TGI [43]: 3.59 µM | GI50 [44]: 3.09 µM | TGI [44]: > 31.7 µM | GI50 [45]: 1.59 µM | TGI [45]: > 100 µM | GI50 [46]: 3.17 µM | TGI [46]: 10.5 µM | GI50 [47]: 1.82 µM | TGI [47]: 4.36 µM | GI50 [48]: 1.54 µM | TGI [48]: 3.46 µM | GI50 [49]: 5.78 µM | TGI [49]: 22.2 µM | GI50 [50]: 2 µM | TGI [50]: 5.12 µM | GI50 [51]: 0.6 µM | TGI [51]: > 20.5 µM | GI50 [52]: 1.47 µM | TGI [52]: 3.65 µM | GI50 [53]: 2.61 µM | TGI [53]: 6.51 µM | GI50 [54]: 2.93 µM | TGI [54]: 8.93 µM | GI50 [55]: 1.92 µM | TGI [55]: 5.01 µM | GI50 [56]: 19.4 µM | TGI [56]: 47.3 µM | GI50 [57]: 2.25 µM | TGI [57]: 6.97 µM

CCCCCCCCN(CCCCCCCC)CC(O)c1cc(-c2ccccc2)nc2ccc(OC)cc12 (stereo not given)
GI50 [1]: 20.3 µM | TGI [1]: 68.5 µM | GI50 [2]: 10.3 µM | TGI [2]: 44.3 µM | GI50 [3]: 53.4 µM | TGI [3]: > 100 µM | GI50 [4]: 54.7 µM | TGI [4]: > 100 µM | GI50 [58]: 43.7 µM | TGI [58]: > 100 µM | GI50 [5]: 23.2 µM | TGI [5]: > 100 µM | GI50 [6]: 16.3 µM | TGI [6]: > 100 µM | GI50 [7]: 16.5 µM | TGI [7]: > 100 µM | GI50 [8]: 34.4 µM | TGI [8]: > 100 µM | GI50 [10]: 27.8 µM | TGI [10]: 96.2 µM | GI50 [11]: 23.1 µM | TGI [11]: > 100 µM | GI50 [12]: > 100 µM | TGI [12]: > 100 µM | GI50 [13]: > 100 µM | TGI [13]: > 100 µM | GI50 [15]: 26.1 µM | TGI [15]: > 100 µM | GI50 [16]: > 100 µM | TGI [16]: > 100 µM | GI50 [17]: 21.2 µM | TGI [17]: 61.2 µM | GI50 [18]: 21.5 µM | TGI [18]: > 100 µM | GI50 [19]: 38.9 µM | TGI [19]: > 100 µM | GI50 [20]: > 100 µM | TGI [20]: > 100 µM | GI50 [21]: 23.9 µM | TGI [21]: 64 µM | GI50 [22]: > 100 µM | TGI [22]: > 100 µM | GI50 [23]: 12.6 µM | TGI [23]: 34.7 µM | GI50 [24]: 18.3 µM | TGI [24]: > 100 µM | GI50 [25]: > 100 µM | TGI [25]: > 100 µM | GI50 [26]: > 100 µM | TGI [26]: > 100 µM | GI50 [27]: 15.7 µM | TGI [27]: 68.4 µM | GI50 [28]: 22.3 µM | TGI [28]: 64.8 µM | GI50 [29]: > 100 µM | TGI [29]: > 100 µM | GI50 [30]: 11.1 µM | TGI [30]: > 100 µM | GI50 [31]: 32.2 µM | TGI [31]: > 100 µM | GI50 [32]: 47.7 µM | TGI [32]: > 100 µM | GI50 [33]: 62.3 µM | TGI [33]: > 100 µM | GI50 [34]: 51 µM | TGI [34]: > 100 µM | GI50 [35]: 28.7 µM | TGI [35]: > 100 µM | GI50 [36]: 34.4 µM | TGI [36]: > 100 µM | GI50 [37]: 30.4 µM | TGI [37]: > 100 µM | GI50 [38]: > 100 µM | TGI [38]: > 100 µM | GI50 [39]: > 100 µM | TGI [39]: > 100 µM | GI50 [40]: 43.4 µM | TGI [40]: > 100 µM | GI50 [41]: 25.6 µM | TGI [41]: > 100 µM | GI50 [42]: 57.5 µM | TGI [42]: > 100 µM | GI50 [43]: 37 µM | TGI [43]: > 100 µM | GI50 [44]: > 100 µM | TGI [44]: > 100 µM | GI50 [45]: 10.1 µM | TGI [45]: 97.3 µM | GI50 [46]: 79.9 µM | TGI [46]: > 100 µM | GI50 [47]: > 100 µM | TGI [47]: > 100 µM | GI50 [48]: > 100 µM | TGI [48]: > 100 µM | GI50 [49]: > 100 µM | TGI [49]: > 100 µM | GI50 [50]: 32.1 µM | TGI [50]: > 100 µM | GI50 [51]: 18 µM | TGI [51]: 52.2 µM | GI50 [52]: 22.1 µM | TGI [52]: > 100 µM | GI50 [53]: 50.3 µM | TGI [53]: > 100 µM | GI50 [54]: > 100 µM | TGI [54]: > 100 µM | GI50 [55]: 29.7 µM | TGI [55]: > 100 µM | GI50 [56]: > 100 µM | TGI [56]: > 100 µM | GI50 [57]: > 100 µM | TGI [57]: > 100 µM

— PubChem BioAssay (NCI)
